# Test results as given in patent US8623897B2, “Methods and compositions for treatment of diabetes and dyslipidemia” (Kareus Therapeutics, SA, priority 2010, dated 2014).
# Experiments:
# [1] = test system: obese diabetic C57BLKS db/db mice; assay: In vivo efficacy in diabetic db/db mice (plasma glucose, triglycerides, HOMA index); parameters: species or system mouse; conditions: male db/db mice, after 1-2 weeks of treatment; for Plasma glucose (% change compared to vehicle) / Plasma Triglycerides (% change compared to vehicle): 6 h fast; for Insulin resistance HOMA index (% change compared to vehicle): HOMA = I0×G0/405
# Procedure: Male obese diabetic C57BLKS db/db mice (6 weeks old) were procured from the Jackson Laboratory (Bar Harbor, Me.) and were maintained on LabDiet 5K52 ad libitum with access to water. Animals were kept in a temperature-controlled room on a 12:12-h light-dark cycle. Experiments were performed on 6-9 week old mice.
# Blood samples were collected after a 6 h fast on day 0 (baseline) and at the end week 1 and week 2 (day 7 and day 14) for analysis of glucose, triglycerides, total cholesterol, insulin and free fatty acid levels. Body weight and feed intake was measured twice weekly. Before initiation of the treatment, the animals were randomized based on plasma glucose levels into treatment groups (n=8 per group). The animals were administered the test compounds in 0.5% carboxymethylcellulose in water at the mentioned doses for two weeks by oral gavage. The control animals received the vehicle (0.5% carboxymethylcellulose in water) alone. Compound administration was continued till day 16.
# Plasma glucose (PG) and triglycerides (TG) were measured spectrophotometrically in a microplate reader using reagent kits (Labkit, Merck) according to the manufacturer's instructions. Plasma insulin was measured by ELISA using a Rat/Mouse kit from Millipore (Cat. No. EZRMI-13K).
# The percentage reduction was calculated according to the following formula
# [formula] Statistical analysis was carried out by one way ANOVA followed by Dunnett's test using GraphPad Prism.
# Determination of Homeostatic model assessment of insulin resistance (HOMA)—The HOMA index for insulin resistance was calculated using the formula— I0×G0/405 Where I0 is the fasting insulin (μU/ml), G0 is the fasting glucose in mg/dL. A factor of 6.945 was used for the conversion of insulin pmol/L to μlU/L).
# The table below summarizes the effect on plasma glucose, triglycerides, and insulin resistance after 1-2 weeks of treatment with representative compounds of Formula I. Example numbers denote the products of examples given above. The data presented in the table is representative and should not be read as limiting the invention to the specific examples listed in the Table.
SMILES,melting point,also measured
"O=C(O)C1(CCCCCCCCCCCCC2(C(F)F)CC2)CC1 [Example 39, 1-[12-(1-Difluoromethyl-cyclopropyl)-dodecyl]-cyclopropanecarboxylic acid]",54 to 54.8 °C,–
CC(C)(CCCCCCCCCCCCC1(C(=O)O)CC1)C(=O)O,85.6 to 86.7 °C,–
"O=C(O)CC1(CCCCCCCCCCC2(CC(=O)O)CC2)CC1 [Example 4, {1-[10-(1-carboxymethyl-cyclopropyl)-decyl]-cyclopropyl}-acetic acid]",–,Plasma Triglycerides (% change compared to vehicle) ([1]; 50 mg/kg oral gavage): −51%; Insulin resistance HOMA index (% change compared to vehicle) ([1]; 50 mg/kg oral gavage): −54%
N#CC1(CCCCCCCCCCCCC2(C#N)CC2)CC1,45 to 46.9 °C,–
"O=C(O)C1(CCCCCCCCCCCCC2(C(=O)O)CC2)CC1 [Example 1, 2,15-Dicycloproryl-hexadecanedioic acid]",–,Plasma glucose (% change compared to vehicle) ([1]; 10 mg/kg oral gavage): −52%; Insulin resistance HOMA index (% change compared to vehicle) ([1]; 10 mg/kg oral gavage): −65%
"CCOC(=O)C1(CCCCCCCCCCCCC2(C(=O)OCC)CC2)CC1 [Example 10, 2,15-Dicyclopropyl-hexadecanedoic acid diethyl ester]",–,Plasma Triglycerides (% change compared to vehicle) ([1]; 15 mg/kg oral gavage): −23%; Plasma glucose (% change compared to vehicle) ([1]; 15 mg/kg oral gavage): −51%
"O=C(O)CC1(CCCCCCCCCCC2(C(=O)O)CC2)CC1 [Example 23, 1-[10-(1-Carboxymethyl-cyclopropyl)-decyl]-cyclopropanecarboxylic acid]",71.9 to 74.3 °C,–

# More lines, main results first:
melting point,SMILES,also measured
112.5 to 113.5 °C,"O=C(NCCO)C1(CCCCCCCCCCCCC2(C(=O)NCCO)CC2)CC1 [Example 40, 1,1′-dodecane-1,12-diylbis[N-(2-hydroxyethyl)cyclopropanecarboxamide]]",–
95.3 to 97.7 °C,"O=C(O)C1(CCCCCCCCCCCCC2(C(=O)NC3CC3)CC2)CC1 [Example 35, 1-[12-(1-Cyclopropylcarbamoyl-cyclopropyl)-dodecyl]-cyclopropane carboxylic acid]",Plasma glucose (% change compared to vehicle) ([1]; 15 mg/kg oral gavage): −30%
44.4 to 46.9 °C,N#CC1(CCCCCCCCCCCCC2(C(=O)O)CC2)CC1,–
50.6 to 53 °C,"COC(=O)C1(CCCCCCCCCCCCC2(C(=O)NC3CC3)CC2)CC1 [Example 34, 1-[12-(1-cyclopropylcarbamoyl-cyclopropyl)-dodecyl]-cyclopropane-carboxylic acid methyl ester]",–
75.3 to 78.9 °C,"O=C(O)CC1(CCCCCCCCCCCC2(C(=O)O)CC2)CC1 [Example 30, 1-[11-(1-Carboxymethyl-cyclopropyl)-undecyl]-cyclopropanecarboxylic acid]",–
116.6 to 118.1 °C,NC(=O)C1(CCCCCCCCCCCCC2(C(=O)O)CC2)CC1 [Example 12],Plasma Triglycerides (% change compared to vehicle) ([1]; 20 mg/kg oral gavage): −28%; Plasma glucose (% change compared to vehicle) ([1]; 20 mg/kg oral gavage): −55%; Insulin resistance HOMA index (% change compared to vehicle) ([1]; 20 mg/kg oral gavage): −89%
36.4 to 37.6 °C,"COCC1(CCCCCCCCCCCCC2(C(=O)O)CC2)CC1 [Example 15, 1-[12-(1-Methoxymethyl-cyclopropyl)-dodecyl]-cyclopropanecarboxylic acid]",Plasma Triglycerides (% change compared to vehicle) ([1]; 15 mg/kg oral gavage): −35%; Plasma glucose (% change compared to vehicle) ([1]; 15 mg/kg oral gavage): −56%; Insulin resistance HOMA index (% change compared to vehicle) ([1]; 15 mg/kg oral gavage): −92%
97.5 to 99.4 °C,"CS(=O)(=O)NC(=O)C1(CCCCCCCCCCCCC2(C(=O)O)CC2)CC1 [Example 37, 1-[12-(1-Methanesulfonylaminocarbonyl-cyclopropyl)-dodecyl]-cyclopropanecarboxylic acid]",Plasma glucose (% change compared to vehicle) ([1]; 15 mg/kg oral gavage): −59%
53.5 to 54.5 °C,"COC(=O)C1(CCCCCCCCCCCCC2(C(=O)NS(C)(=O)=O)CC2)CC1 [Example 36, 1-[12-(1-Methanesulfonylaminocarbonyl-cyclopropyl)-dodecyl]-cyclopropanecarboxylic acid methyl ester]",–
81.1 to 83.8 °C,"O=C(O)C1(CCCCCCCCCCCCC2(C(=O)NCCO)CC2)CC1 [Example 42, 1-{12-[1-(2-hydroxy-ethylcarbamoyl)-cyclopropyl]-dodecyl}-cyclopropane carboxylic acid]",–
